How the values were obtained:
[1] = molecular target: CDK9/cyclin T1 (Homo sapiens, UniProt P50750); assay: Kinase assay CDK9/cyclin T1; assay type: biochemical; conditions: Ki calculated (Cheng-Prusoff) from experimentally determined IC50 and Km,ATP; read-out: Kinase Inhibition Ki CDK9 - cyclin T1
In short: (§1)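 Radiometric filter assays used recombinant kinases or complexes (2-4 μg) with appropriate polypeptide substrates in pH 7.4 β-glycerophosphate/MOPS buffer. Reactions were started with 15 mM MgCl2 and 100 μM ATP containing [γ-32P]-ATP and run at 30° C. Phosphate incorporated into substrate was counted by scintillation after washing.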

[2] = molecular target: CDK4/cyclin D1 (Homo sapiens, UniProt P11802); assay: Kinase assay CDK4/cyclin D1; assay type: biochemical; conditions: Ki calculated (Cheng-Prusoff) from experimentally determined IC50 and Km,ATP; read-out: Kinase Inhibition Ki CDK4 - cyclin D1
CDK4/cyclin D1, sequence (P11802 whole entry, species assumed): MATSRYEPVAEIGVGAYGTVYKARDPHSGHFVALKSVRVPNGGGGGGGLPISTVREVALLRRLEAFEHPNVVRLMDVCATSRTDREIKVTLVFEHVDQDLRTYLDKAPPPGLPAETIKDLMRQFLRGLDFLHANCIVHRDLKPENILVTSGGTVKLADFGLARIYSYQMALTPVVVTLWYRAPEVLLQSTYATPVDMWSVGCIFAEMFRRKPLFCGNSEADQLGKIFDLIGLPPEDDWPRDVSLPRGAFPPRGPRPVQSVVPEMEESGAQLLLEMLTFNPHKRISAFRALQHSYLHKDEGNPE
CDK4/cyclin D1, sequence (P24385 whole entry partner, species assumed): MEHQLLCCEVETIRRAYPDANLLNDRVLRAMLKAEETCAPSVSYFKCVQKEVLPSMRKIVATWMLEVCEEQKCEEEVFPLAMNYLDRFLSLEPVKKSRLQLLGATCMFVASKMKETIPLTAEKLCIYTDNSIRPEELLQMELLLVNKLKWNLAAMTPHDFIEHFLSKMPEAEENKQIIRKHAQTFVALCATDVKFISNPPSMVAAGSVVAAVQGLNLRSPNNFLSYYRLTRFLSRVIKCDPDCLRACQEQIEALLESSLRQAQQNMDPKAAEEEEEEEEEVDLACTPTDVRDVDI
In short: as §1

[3] = molecular target: CDK2/cyclin A (Homo sapiens, UniProt P24941); assay: Kinase assay CDK2/cyclin A; assay type: biochemical; conditions: Ki calculated (Cheng-Prusoff) from experimentally determined IC50 and Km,ATP; read-out: Kinase Inhibition Ki CDK2 - cyclin A
In short: (§2)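 Radiometric assays measured transfer of radioactive phosphate from ATP onto polypeptide substrates, using 2-4 μg recombinant active enzyme in buffer typically containing 25 mM β-glycerophosphate, 20 mM MOPS, 5 mM EGTA, 1 mM DTT and 1 mM Na3VO3 at pH 7.4. Reactions were stopped on ice, filtered on P81 or GF/C plates and washed with orthophosphoric acid. Incorporated radioactivity was scintillation-counted.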

[4] = tested on: HIV-1; conditions: HIV-1 in human PBMCs, seven days following infection
Method: Representative compounds of the present invention were tested for antiviral activity against HIV-1 in human peripheral blood mononuclear cells (PBMCs) using the clinical paediatric HIV strains RoJo or WeJo. PBMCs were cultured under conditions which promote cell survival and HIV replication.
Fresh PBMCs, seronegative for HIV and HBV, were isolated from screened donors (Interstate Blood Bank, Inc. Memphis, Tenn.). Cells were pelleted/washed 2-3 times by low speed centrifugation and re-suspension in PBS to remove contaminating platelets. […] Banded PBMCs were gently aspirated from the resulting interface and subsequently washed with PBS by low speed centrifugation. […] The cells were allowed to incubate at 37° C. […] IL-2 is included in the culture medium to maintain the cell division initiated by the PHA mitogenic stimulation. PBMCs were maintained in this with bi-weekly medium changes until used in the assay protocol. Cells were kept in culture for a maximum of two weeks before being deemed too old for use in assays and discarded. Monocytes were depleted from the culture as the result of adherence to the tissue culture flask.
For the standard PBMC assay, PHA-P stimulated cells from at least two normal donors were pooled, diluted and plated in the interior wells of a 96-well round bottom microplate. Pooling of mononuclear cells from more than one donor was used to minimise the variability observed between individual donors, which results from quantitative and qualitative differences in HIV infection and overall response to the PHA and IL-2 of primary lymphocyte populations. Each plate contained virus/cell control wells (cells plus virus), experimental wells (drug plus cells plus virus) and compound control wells (drug plus media without cells, necessary for MTS monitoring of cytotoxicity). Since HIV-1 is not cytopathic to PBMCs, this allows the use of the same assay plate for both antiviral activity and cytotoxicity measurements. Test drug dilutions were prepared in microtiter tubes and each concentration was placed in appropriate wells using the standard format. A predetermined dilution of virus stock was placed in each test well (final MOI≅0.1). The PBMC cultures were maintained for seven days following infection at 37° C., 5% CO2 After this period, cell-free supernatant samples were collected for analysis of reverse transcriptase activity and/or HIV p24 content. Following removal of supernatant samples, compound cytotoxicity was measured by addition of MTS to the plates for determination of cell viability. Wells were also examined microscopically and any abnormalities were noted.
Tritiated thymidine triphosphate (^3H-TTP, 80 Ci/mmol, NEN) was received in 1:1 dH2O:Ethanol at 1 mCi/mL. Poly rA:oligo dT template:primer (Pharmacia) was prepared as a stock solution, followed by aliquoting and storage at −20° C. The RT reaction buffer was prepared fresh on a daily basis. The final reaction mixture was prepared by combining ^3H-TTP, dH2O, poly rA:oligo dT stock and reaction buffer. This reaction mixture was placed in a round bottom microtiter plate and supernatant containing virus was added and mixed. The plate was incubated at 37° C. for 60 minutes. Following incubation, the reaction volume was spotted onto DE81 filter-mats (Wallac), in a sodium phosphate buffer or 2×SSC (Life Technologies). Next they were washed in distilled water, in 70% ethanol, and then dried. Incorporated radioactivity (counts per minute, CPM) was quantified using standard liquid scintillation techniques.

[5] = molecular target: CDK2/cyclin E (Homo sapiens, UniProt P24941); assay: Kinase assay CDK2/cyclin E; assay type: biochemical; conditions: Ki calculated (Cheng-Prusoff) from experimentally determined IC50 and Km,ATP; read-out: Kinase Inhibition Ki CDK2 - cyclin E
In short: as §2

[6] = molecular target: CDK1/cyclin B (Homo sapiens, UniProt P06493); assay: Kinase assay CDK1/cyclin B (radioactive phosphate incorporation); assay type: biochemical; conditions: Ki calculated (Cheng-Prusoff) from experimentally determined IC50 and Km,ATP; read-out: Kinase Inhibition Ki CDK1 - cyclin B
CDK1/cyclin B, sequence (P06493 whole entry, species assumed): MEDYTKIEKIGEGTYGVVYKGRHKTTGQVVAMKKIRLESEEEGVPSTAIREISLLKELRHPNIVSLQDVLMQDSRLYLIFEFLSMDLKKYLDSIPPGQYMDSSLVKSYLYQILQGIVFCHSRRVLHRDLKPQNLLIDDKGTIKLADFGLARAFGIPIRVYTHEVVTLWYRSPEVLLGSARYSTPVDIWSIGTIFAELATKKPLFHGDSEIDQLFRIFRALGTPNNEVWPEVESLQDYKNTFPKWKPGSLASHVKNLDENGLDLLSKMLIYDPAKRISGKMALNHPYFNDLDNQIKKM
CDK1/cyclin B, sequence (P14635 whole entry partner, species assumed): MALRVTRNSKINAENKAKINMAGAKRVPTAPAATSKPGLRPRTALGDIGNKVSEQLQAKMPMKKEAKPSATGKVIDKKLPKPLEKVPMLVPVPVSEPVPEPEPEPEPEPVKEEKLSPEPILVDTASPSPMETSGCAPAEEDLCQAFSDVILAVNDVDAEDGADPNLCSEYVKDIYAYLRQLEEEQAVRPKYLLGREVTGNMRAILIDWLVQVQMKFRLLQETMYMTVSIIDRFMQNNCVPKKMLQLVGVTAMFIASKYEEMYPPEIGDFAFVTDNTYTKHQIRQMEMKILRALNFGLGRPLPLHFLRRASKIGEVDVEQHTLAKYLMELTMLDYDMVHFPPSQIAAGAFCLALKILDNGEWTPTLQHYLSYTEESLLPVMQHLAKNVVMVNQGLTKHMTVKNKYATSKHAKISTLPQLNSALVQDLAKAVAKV
In short: as §2

[7] = molecular target: CDK7/cyclin H (Homo sapiens, UniProt P50613); assay: Kinase assay CDK7/cyclin H; assay type: biochemical; conditions: Ki calculated (Cheng-Prusoff) from experimentally determined IC50 and Km,ATP; read-out: Kinase Inhibition Ki CDK7 - cyclin H
CDK7/cyclin H, sequence (P50613 whole entry, species assumed): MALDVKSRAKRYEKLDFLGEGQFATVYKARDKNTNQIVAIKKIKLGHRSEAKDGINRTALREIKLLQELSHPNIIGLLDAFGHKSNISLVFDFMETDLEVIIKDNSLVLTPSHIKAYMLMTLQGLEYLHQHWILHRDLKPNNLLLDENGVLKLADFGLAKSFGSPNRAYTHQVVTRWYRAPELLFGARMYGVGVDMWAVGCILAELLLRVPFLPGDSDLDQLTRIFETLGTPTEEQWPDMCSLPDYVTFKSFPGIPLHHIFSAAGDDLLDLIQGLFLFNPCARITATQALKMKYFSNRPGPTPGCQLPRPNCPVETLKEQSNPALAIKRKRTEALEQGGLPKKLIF
CDK7/cyclin H, sequence (P51946 whole entry partner, species assumed): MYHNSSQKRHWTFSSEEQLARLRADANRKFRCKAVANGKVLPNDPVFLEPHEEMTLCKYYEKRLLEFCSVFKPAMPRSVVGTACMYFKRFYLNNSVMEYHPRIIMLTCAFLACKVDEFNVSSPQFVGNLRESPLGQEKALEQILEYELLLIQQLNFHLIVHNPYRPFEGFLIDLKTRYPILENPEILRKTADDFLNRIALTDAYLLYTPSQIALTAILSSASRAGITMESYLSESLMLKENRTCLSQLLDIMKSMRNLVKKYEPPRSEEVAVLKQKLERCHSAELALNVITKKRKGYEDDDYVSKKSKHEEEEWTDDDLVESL
In short: as §1

[8] = molecular target: T1, aurora A (Homo sapiens, UniProt O14965); assay: Kinase assay aurora A; assay type: biochemical; conditions: Ki calculated (Cheng-Prusoff) from experimentally determined IC50 and Km,ATP; read-out: Kinase Inhibition Ki Aurora A
T1 sequence (O14965 1-403): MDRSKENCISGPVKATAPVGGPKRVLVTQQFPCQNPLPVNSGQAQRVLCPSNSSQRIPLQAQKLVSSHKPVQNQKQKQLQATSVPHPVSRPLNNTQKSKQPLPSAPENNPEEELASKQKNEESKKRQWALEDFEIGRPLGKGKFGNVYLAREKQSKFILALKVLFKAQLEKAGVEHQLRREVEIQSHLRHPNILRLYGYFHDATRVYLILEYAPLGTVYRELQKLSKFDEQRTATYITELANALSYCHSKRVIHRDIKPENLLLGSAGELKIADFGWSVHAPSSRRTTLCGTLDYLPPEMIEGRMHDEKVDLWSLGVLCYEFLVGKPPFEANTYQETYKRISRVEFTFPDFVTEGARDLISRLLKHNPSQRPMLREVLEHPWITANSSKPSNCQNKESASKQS
Method: The compounds from the examples above were investigated for their ability to inhibit the enzymatic activity of various protein kinases. This was achieved by measurement of incorporation of radioactive phosphate from ATP into appropriate polypeptide substrates. Recombinant protein kinases and kinase complexes were produced or obtained commercially. Assays were performed using 96-well plates and appropriate assay buffers (typically 25 mM β-glycerophosphate, 20 mM MOPS, 5 mM EGTA, 1 mM DTT, 1 mM […], pH 7.4), into which were added 2-4 μg of active enzyme with appropriate substrates. […] Reactions were stopped on ice, followed by filtration through p81 filterplates or GF/C filterplates (Whatman Polyfiltronics, Kent, UK). After washing 3 times with 75 mM aq orthophosphoric acid, plates were dried, scintillant added and incorporated radioactivity measured in a scintillation counter (TopCount, Packard Instruments, Pangbourne, Berks, UK). Compounds for kinase assay were made up as 10 mM stocks in DMSO and diluted into 10% DMSO in assay buffer.

[9] = molecular target: T2, GSK3β (Homo sapiens, UniProt P49841); assay: GSK3β in vitro kinase assay; assay type: biochemical; conditions: recombinant human GSK3β, 100 μM ATP
T2 construct: purchased New England Biolabs
T2 sequence (P49841 whole entry): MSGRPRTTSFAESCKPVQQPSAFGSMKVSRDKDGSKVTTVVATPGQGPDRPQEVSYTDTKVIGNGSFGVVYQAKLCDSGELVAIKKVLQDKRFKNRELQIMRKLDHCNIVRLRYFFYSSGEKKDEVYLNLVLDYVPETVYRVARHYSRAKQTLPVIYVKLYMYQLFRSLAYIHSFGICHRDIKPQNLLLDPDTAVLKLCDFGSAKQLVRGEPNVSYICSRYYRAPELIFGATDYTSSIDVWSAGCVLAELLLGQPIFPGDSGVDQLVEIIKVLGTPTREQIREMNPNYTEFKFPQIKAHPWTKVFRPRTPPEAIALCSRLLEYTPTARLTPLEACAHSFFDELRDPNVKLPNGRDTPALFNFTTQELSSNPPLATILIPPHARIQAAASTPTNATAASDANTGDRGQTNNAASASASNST
Method: Both isoforms of GSK3 (α and β) are involved in the regulation of glycogen synthase activity—key enzyme in the glycogen metabolism.
A 10-point titration was set up to determine the IC50 values of selected example compounds against GSK3β. Assays were performed using 96-well microtiter plates with a final volume of 25 μL per well. Each assay contained 1.5 units of GSK3β(New England Biolabs), 200 μM CREB phosphopeptide ([…]pSYR, Alta Biosciences), 20 mM Tris HCl pH7.5, 5 mM DTT, 15 mM MgCl2 supplemented with 100 μM ATP and 0.5 μCi of [γ-^32P] ATP plus or minus inhibitor in 2% DMSO. Assays were carried out for 30 minutes at 30° C. before stopping the reaction by the addition of an equal volume of 75 mM aqueous phosphoric acid. Samples were then spotted onto a p81 filterplate (Whatman) and a vacuum was applied. Wells were washed 3 times with 200 μL of dilute aqueous phosphoric acid before the addition of 50 μL Microscint 40 per well. Incorporation of radioactivity was determined on a Topcount microplate scintillation counter (Packard).

CDK9/cyclin T1, sequence (P50750 whole entry, species assumed): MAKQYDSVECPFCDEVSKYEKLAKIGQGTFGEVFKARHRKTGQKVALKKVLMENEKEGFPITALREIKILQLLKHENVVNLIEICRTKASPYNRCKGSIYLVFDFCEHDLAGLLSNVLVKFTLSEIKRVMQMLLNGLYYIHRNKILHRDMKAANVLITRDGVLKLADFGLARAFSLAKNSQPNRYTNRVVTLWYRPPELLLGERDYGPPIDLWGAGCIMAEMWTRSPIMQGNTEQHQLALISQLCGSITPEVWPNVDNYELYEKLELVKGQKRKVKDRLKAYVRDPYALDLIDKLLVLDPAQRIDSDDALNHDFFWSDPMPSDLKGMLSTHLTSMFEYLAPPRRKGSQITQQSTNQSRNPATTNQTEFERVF
CDK9/cyclin T1, sequence (O60563 whole entry partner, species assumed): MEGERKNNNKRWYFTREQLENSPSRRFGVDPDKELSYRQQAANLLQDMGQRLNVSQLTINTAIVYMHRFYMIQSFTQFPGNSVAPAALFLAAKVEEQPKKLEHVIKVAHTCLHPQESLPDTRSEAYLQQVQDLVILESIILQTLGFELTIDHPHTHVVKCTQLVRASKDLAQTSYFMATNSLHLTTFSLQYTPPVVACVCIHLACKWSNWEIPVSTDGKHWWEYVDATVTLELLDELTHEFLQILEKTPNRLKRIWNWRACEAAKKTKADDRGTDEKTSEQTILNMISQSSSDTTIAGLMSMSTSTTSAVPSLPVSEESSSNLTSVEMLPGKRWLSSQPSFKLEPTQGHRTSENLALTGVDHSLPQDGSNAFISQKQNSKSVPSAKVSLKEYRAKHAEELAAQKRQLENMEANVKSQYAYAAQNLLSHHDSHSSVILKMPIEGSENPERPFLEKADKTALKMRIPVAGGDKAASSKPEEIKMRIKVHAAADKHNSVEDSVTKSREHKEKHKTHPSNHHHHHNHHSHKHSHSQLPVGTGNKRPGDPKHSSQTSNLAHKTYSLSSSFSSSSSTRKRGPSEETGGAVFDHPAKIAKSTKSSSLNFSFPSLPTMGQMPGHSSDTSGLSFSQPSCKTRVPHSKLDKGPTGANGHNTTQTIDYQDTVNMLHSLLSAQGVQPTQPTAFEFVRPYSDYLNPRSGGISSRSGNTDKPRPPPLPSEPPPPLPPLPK

With CCn1c(C)c(-c2ccnc(Nc3ccc(OC)nc3)n2)sc1=O [Compound 33, 3-Ethyl-5-[2-(6-methoxy-pyridin-3-ylamino)-pyrimidin-4-yl]-4-methyl-3H-thiazol-2-one] the Ki [1] was 2.4 nM, the Ki [2] was 35 nM and the Ki [3] was 760 nM. The “anti-HIV activity based on TI (therapeutic index: TC50/IC50)” value [4] was “Active”, the Ki [5] was 50 nM and the Ki [6] was 30 nM. For the same molecule, the Ki [7] was 23 nM.

Work on Cc1c(-c2ccnc(Nc3cccc(CNC(=O)c4ccccc4)c3)n2)sc(=O)n1C [Compound 57, N-{3-[4-(3,4-Dimethyl-2-oxo-2,3-dihydro-thiazol-5-yl)-pyrimidin-2-ylamino]-benzyl}-benzamide] yielded a Ki [1] of 1.6 nM, a Ki [2] of 21 nM and a Ki [8] of 160 nM. It also gave a Ki [3] of 540 nM, an IC50 [9] of 17.8 nM and a Ki [5] of 52 nM. The Ki [6] was 360 nM and the Ki [7] was 1300 nM.

Work on Cc1c(-c2ccnc(Nc3ccc(N4CCNCC4)c(Cl)c3)n2)sc(=O)n1C [Compound 44, 5-[2-(3-Chloro-4-piperazin-1-yl-phenylamino)-pyrimidin-4-yl]-3,4-dimethyl-3H-thiazol-2-one] yielded a Ki [1] of 3.4 nM, a Ki [2] of 36 nM and a Ki [8] of 38 nM. It also gave a Ki [3] of 99 nM, an IC50 [9] of 17.8 nM and a Ki [5] of 62 nM. For the same molecule, the Ki [6] was 86 nM and the Ki [7] was 19 nM.

Work on CCn1c(C)c(-c2ccnc(Nc3ccc(C)c(O)c3)n2)sc1=O [Compound 47, 3-Ethyl-5-[2-(3-hydroxy-4-methyl-phenylamino)-pyrimidin-4-yl]-4-methyl-3H-thiazol-2-one] yielded a Ki [1] of 3 nM, a Ki [2] of 1800 nM and a Ki [8] of 53 nM. It also gave a Ki [3] of 87 nM, an IC50 [9] of 30.8 nM and a Ki [5] of 15 nM. It also gave a Ki [6] of 180 nM and a Ki [7] of 17 nM.

Cc1c(-c2ccnc(Nc3cccc(CNS(=O)(=O)C(F)(F)F)c3)n2)sc(=O)n1C [Compound 58, N-{3-[4-(3,4-Dimethyl-2-oxo-2,3-dihydro-thiazol-5-yl)-pyrimidin-2-ylamino]-benzyl}-C,C,C-trifluoro-methanesulfonamide] gave a Ki [1] of 6.4 nM, a Ki [2] of 5100 nM and a Ki [8] of 840 nM. For the same molecule, the Ki [3] was 600 nM, the IC50 [9] was 23.3 nM and the Ki [5] was 100 nM. The Ki [6] was 1100 nM and the Ki [7] was 96 nM.

Cc1c(-c2ccnc(Nc3ccc(N4CCN(Cc5ccccc5)CC4)cc3)n2)sc(=O)n1C [Compound 69, 5-{2-[4-(4-Benzyl-piperazin-1-yl)-phenylamino]-pyrimidin-4-yl}-3,4-dimethyl-3H-thiazol-2-one] gave a Ki [1] of 21 nM, a Ki [2] of 100 nM and a Ki [8] of 39 nM. The Ki [3] was 950 nM, the IC50 [9] was 96 nM and the Ki [5] was 160 nM. It also gave a Ki [6] of 1700 nM and a Ki [7] of 12 nM.

In the case of Cc1c(-c2ccnc(Nc3cccc(CNS(C)(=O)=O)c3)n2)sc(=O)n1C [Compound 55, N-{3-[4-(3,4-Dimethyl-2-oxo-2,3-dihydro-thiazol-5-yl)-pyrimidin-2-ylamino]-benzyl}-methane-sulfonamide], the Ki [1] is reported as 2.2 nM, the Ki [2] is reported as 110 nM and the Ki [8] is reported as 46 nM. The Ki [3] was 42 nM, the IC50 [9] was 82 nM and the Ki [5] was 39 nM. The Ki [6] was 160 nM and the Ki [7] was 110 nM.

In the case of Cc1ccc(Nc2nccc(-c3sc(=O)n(C)c3C)n2)cc1[N+](=O)[O-] [Compound 11, 3,4-Dimethyl-5-[2-(4-methyl-3-nitro-phenylamino)-pyrimidin-4-yl]-3H-thiazol-2-one], the Ki [1] is reported as 0.4 nM, the Ki [2] is reported as 380 nM and the Ki [3] is reported as 220 nM. The “anti-HIV activity based on TI (therapeutic index: TC50/IC50)” value [4] was “Active”, the Ki [5] was 61 nM and the Ki [6] was 720 nM. The Ki [7] was 36 nM.

For Cc1c(-c2ccnc(Nc3cccc(C#N)c3)n2)sc(=O)n1C [Compound 16, 3-[4-(3,4-Dimethyl-2-oxo-2,3-dihydro-thiazol-5-yl)-pyrimidin-2-ylamino]-benzonitrile], the Ki [1] was 1.9 nM, the Ki [2] was 100 nM and the Ki [3] was 42 nM. For the same molecule, the “anti-HIV activity based on TI (therapeutic index: TC50/IC50)” value [4] was “Active”, the Ki [5] was 0.5 nM and the Ki [6] was 400 nM. It also gave a Ki [7] of 6.8 nM.

With CCn1c(C)c(-c2ccnc(Nc3ccc(F)cc3)n2)sc1=O [Compound 45, 3-Ethyl-5-[2-(4-fluoro-phenylamino)-pyrimidin-4-yl]-4-methyl-3H-thiazol-2-one] the Ki [1] was 11 nM, the Ki [2] was 5000 nM and the Ki [8] was 43 nM. It also gave a Ki [3] of 52 nM, an IC50 [9] of 15.2 nM and a Ki [5] of 24 nM. It also gave a Ki [6] of 300 nM and a Ki [7] of 220 nM.

Cc1c(-c2ccnc(Nc3ccc(S(=O)(=O)NCCO)cc3)n2)sc(=O)n1C [Compound 72, 4-[4-(3,4-Dimethyl-2-oxo-2,3-dihydro-thiazol-5-yl)-pyrimidin-2-ylamino]-N-(2-hydroxy-ethyl)-benzenesulfonamide] gave a Ki [1] of 11 nM, a Ki [2] of 830 nM and a Ki [8] of 510 nM. For the same molecule, the Ki [3] was 2.9 nM, the IC50 [9] was 8.3 nM and the Ki [5] was 0.5 nM. It also gave a Ki [6] of 5.4 nM and a Ki [7] of 1200 nM.

For Cc1ccc(Nc2nccc(-c3sc(=O)n(C)c3C)n2)cc1C(F)(F)F [Compound 21, 3,4-Dimethyl-5-[2-(4-methyl-3-trifluoromethyl-phenylamino)-pyrimidin-4-yl]-3H-thiazol-2-one], the Ki [1] was 170 nM, the Ki [3] was 550 nM and the “anti-HIV activity based on TI (therapeutic index: TC50/IC50)” value [4] was “Active”. For the same molecule, the Ki [5] was 190 nM, the Ki [6] was 2300 nM and the Ki [7] was 220 nM.

CCn1c(C)c(-c2ccnc(Nc3cccc([N+](=O)[O-])c3)n2)sc1=O [Compound 23, 3-Ethyl-4-methyl-5-[2-(3-nitro-phenylamino)-pyrimidin-4-yl]-3H-thiazol-2-one] showed a Ki [1] of 0.3 nM, a Ki [2] of 870 nM and a Ki [3] of 62 nM. For the same molecule, the “anti-HIV activity based on TI (therapeutic index: TC50/IC50)” value [4] was “Active”, the Ki [5] was 16 nM and the Ki [6] was 290 nM. It also gave a Ki [7] of 1.4 nM.

Cc1cc(Nc2nccc(-c3sc(=O)n(C)c3C)n2)ccc1Cl [Compound 15, 5-[2-(4-Chloro-3-methyl-phenylamino)-pyrimidin-4-yl]-3,4-dimethyl-3H-thiazol-2-one] was tested, and the Ki [1] was 45 nM, the Ki [2] was 9600 nM and the Ki [3] was 460 nM. The “anti-HIV activity based on TI (therapeutic index: TC50/IC50)” value [4] was “Active”, the Ki [5] was 580 nM and the Ki [6] was 600 nM.

CC(=O)N1CCN(c2cccc(Nc3nccc(-c4sc(=O)n(C)c4C)n3)c2)CC1 [Compound 49, 5-{2-[3-(4-Acetyl-piperazin-1-yl)-phenylamino]-pyrimidin-4-yl}-3,4-dimethyl-3H-thiazol-2-one] gave a Ki [1] of 30 nM, a Ki [2] of 9.7 nM and a Ki [8] of 110 nM. It also gave a Ki [3] of 3000 nM, an IC50 [9] of 380 nM and a Ki [5] of 1300 nM. For the same molecule, the Ki [6] was 930 nM and the Ki [7] was 1100 nM.
